# Measurements reported in patent publication US20220378707A1, “1-(((2S,3S,4S)-3-ETHYL-4-FLUORO-5-OXOPYRROLIDIN-2-YL)METHOXY)-7-METHOXYISOQUINOLINE-6-CARBOXAMIDE COMBINATIONS AND ORAL DOSAGE FORMS” (Pfizer Inc., priority 2019, published 2022).
# System: keratinocytes and HDFn+(IL-1β, TNFα and IFNγ)
# Assay: BioMAP KF3CT system
# Assay type: cell-based, human
# Settings: Th1 cutaneous inflammation; tofacitinib 37-1000 nM
# Excerpt: The BioMAP systems consist of human primary cell-based systems designed to model different aspects of the human body in an in vitro format. The 12 systems tested characterized the test compounds across a broad set of systems modeling various human disease states. BioMAP systems were constructed with one or more primary cell types from healthy human donors, with stimuli (such as cytokines or growth factors) added to capture relevant signaling networks that naturally occur in human tissue or pathological conditions. Vascular biology was modeled in both a Th1 (3C system) and a Th2 (4H system) inflammatory environment, as well as in a Th1 inflammatory state specific to arterial smooth muscle cells (CASM3C system). […]
# Systems were derived from either single cell types or co-culture systems. […] Test agents were prepared in DMSO (final concentration <0.1%) and were added 1 hour before stimulation, and remained in culture for 24 hours or as otherwise indicated (48-hrs, MyoF system; 72-hrs, BT system (soluble readouts); 168-hrs, BT system (secreted IgG)). […] Soluble factors from supernatants were quantified using either HTRF® detection, bead-based multiplex immunoassay or capture ELISA. Overt adverse effects of test agents on cell proliferation and viability (cytotoxicity) were detected by sulforhodamine B (SRB) staining, for adherent cells, and alamarBlue® reduction for cells in suspension.
compound,measurement,value
"C[C@@H]1CCN(C(=O)CC#N)C[C@@H]1N(C)c1ncnc2[nH]ccc12 [tofacitinib, 3-((3R,4R)-4-Methyl-3-(methyl(7H-pyrrolo[2,3-d]pyrimidin-4-yl)amino)piperidin-1-yl)-3-oxopropanenitrile]",Inhibition of biomarker readouts in the KF3CT system,MCP-1
